For 21 molecules, mortality and LC50 results are on record in ChEMBL document CHEMBL3046686, “Isoxazole derivatives as a potential insecticide for managing Callosobruchus chinensis” (2010).

In brackets after ≈: the same amount, converted by molar mass.

In assay [1] the test system is Callosobruchus chinensis. Put plainly: Insecticidal activity against Callosobruchus chinensis assessed as mortality at 1000 mg/l at 27 +/- 1 degC and 70% RH. It is filed as functional.
Assay [2] relates to Callosobruchus chinensis. Put plainly: Insecticidal activity against Callosobruchus chinensis assessed as mortality at 27 +/- 1 degC and 70% RH. It is filed as functional.

The mortality is the percentage killed. The LC50 is the concentration lethal to half of the exposed cells or organisms.

`Clc1ccc(-c2cc(-c3ccccc3)on2)cc1`: the mortality at 1000 µg/mL in the assay with Callosobruchus chinensis [1] worked out at 65%.

With `COc1ccc(-c2cc(-c3ccccc3)no2)cc1`, the mortality at 1000 µg/mL with Callosobruchus chinensis [1] turned out to be 66%.

In the case of `Cc1ccc(-c2cc(-c3ccccc3)no2)cc1`, the mortality at 1000 µg/mL in the assay on Callosobruchus chinensis [1] is 65%.

Regarding `COc1ccc(-c2cc(-c3ccc(Cl)cc3)on2)cc1`, in the assay on Callosobruchus chinensis [2], the LC50 amounted to 330 µg/mL (≈ 1150 µM). In addition, the mortality at 1000 µg/mL in the assay on Callosobruchus chinensis [1] was found to be 85%.

On to `Fc1ccc(-c2cc(-c3ccccc3)on2)cc1`, for which the LC50 in the assay on Callosobruchus chinensis [2] worked out at 254 µg/mL (≈ 1060 µM). Further, in the assay on Callosobruchus chinensis [1], the mortality at 1000 µg/mL came to 86%.

In the case of `Fc1ccc(-c2cc(-c3ccc(Cl)cc3)on2)cc1`, the mortality at 1000 µg/mL in the assay on Callosobruchus chinensis [1] worked out at 59%.

In the case of `Cc1ccc(-c2cc(-c3ccc(F)cc3)no2)cc1`, the mortality at 1000 µg/mL with Callosobruchus chinensis [1] came to 67%.

For the molecule `COc1ccc(-c2cc(-c3ccc(F)cc3)no2)cc1`, the LC50 with Callosobruchus chinensis [2] came to 289 µg/mL (≈ 1070 µM). For the same molecule, the mortality at 1000 µg/mL with Callosobruchus chinensis [1] came out at 88%.

With `Clc1ccc(-c2cc(-c3ccc(Cl)cc3)on2)cc1`, in the assay with Callosobruchus chinensis [2], the LC50 was 134 µg/mL (≈ 462 µM). The mortality at 1000 µg/mL in the assay on Callosobruchus chinensis [1] was 90%.

With `Cc1ccc(-c2cc(-c3ccc(Cl)cc3)no2)cc1`, in the assay with Callosobruchus chinensis [1], the mortality at 1000 µg/mL was 63%.

Take `COc1ccc(-c2cc(-c3ccc(Cl)cc3)no2)cc1`: in the assay with Callosobruchus chinensis [2], the 50% lethal concentration (LC50) was 354 µg/mL (≈ 1240 µM). In addition, the mortality at 1000 µg/mL with Callosobruchus chinensis [1] is 82%.

With `Clc1ccccc1-c1cc(-c2ccccc2)on1`, in the assay with Callosobruchus chinensis [2], the LC50 worked out at 36 µg/mL (≈ 141 µM). Also, the mortality at 1000 µg/mL in the assay on Callosobruchus chinensis [1] is 78%.

Consider `Clc1ccc(-c2cc(-c3ccccc3Cl)no2)cc1`, for which the LC50 in the assay with Callosobruchus chinensis [2] worked out at 338 µg/mL (≈ 1160 µM). In addition, the mortality at 1000 µg/mL with Callosobruchus chinensis [1] is 85%.

For `Cc1ccc(-c2cc(-c3ccccc3Cl)no2)cc1`, the mortality at 1000 µg/mL in the assay with Callosobruchus chinensis [1] was determined as 68%.

For `COc1ccc(-c2cc(-c3ccccc3Cl)no2)cc1`, in the assay with Callosobruchus chinensis [2], the LC50 is 110 µg/mL (≈ 385 µM). The mortality at 1000 µg/mL in the assay on Callosobruchus chinensis [1] worked out at 86%.

Take `COc1ccc(-c2cc(-c3ccccc3)on2)cc1`: in the assay with Callosobruchus chinensis [1], the mortality at 1000 µg/mL turned out to be 58%.

For `COc1ccc(-c2cc(-c3ccc(C)cc3)on2)cc1`, the LC50 in the assay with Callosobruchus chinensis [2] is 93 µg/mL (≈ 351 µM). The mortality at 1000 µg/mL in the assay with Callosobruchus chinensis [1] is 84%.

In the case of `COc1ccc(-c2cc(-c3ccc(OC)cc3)on2)cc1`, the LC50 with Callosobruchus chinensis [2] stood at 296 µg/mL (≈ 1050 µM). Besides, in the assay with Callosobruchus chinensis [1], the mortality at 1000 µg/mL stood at 89%.

Turning to `Clc1ccc(-c2cc(-c3ccccc3)no2)cc1`, the mortality at 1000 µg/mL in the assay with Callosobruchus chinensis [1] amounted to 46%.

In the case of `c1ccc(-c2cc(-c3ccccc3)on2)cc1` [3,5-DIPHENYLISOXAZOLE], in the assay on Callosobruchus chinensis [1], the mortality at 1000 µg/mL came to 67%.

`COP(=O)(OC)OC=C(Cl)Cl` [DICHLORVOS]: the LC50 in the assay on Callosobruchus chinensis [2] worked out at 155 µg/mL (≈ 701 µM).
